According to patent US9994824B2, “Method for promoting hair growth using composition comprising PDGF-D treated adipose-derived stem cells” (INDUSTRY-ACADEMIC COOPERATION FOUNDATION, YONSEI UNIVERSITY, priority 2015, dated 2018):

Tests used:
mitochondria of ASCs = assay: mitochondrial fission (MitoTracker Red, confocal microscope); format: cell-based, human; conditions: PDGF-D-treated ASCs plus inhibitor
Experimental: ASCs were seeded on a round cover glass and treated with PDGF-D (10 ng/ml) for 24 hours. For mitochondrial staining, 500 nM MitoTracker Red (Molecular Probe, USA) was added to an α-MEM medium, and cells were incubated for 30 minutes, and then the morphology of mitochondria and MitoTracker Red fluorescence were examined using a confocal microscope (Carl Zeiss). In addition, for nuclear staining, cells were fixed with 4% paraformaldehyde for 15 minutes, permeabilized with 0.5% PBS-T for 5 minutes, and stained with DAPI (Sigma, USA) at room temperature for 10 minutes.

ASCs [1] = assay: cell proliferation assay (CCK-8 cell numbers); format: cell-based, human; conditions: for proliferation of ASCs increased by PDGF-D, effect of inhibitor: inhibitor treatment of PDGF-D-treated ASCs
Experimental: (§1) Human ASCs were obtained from a subcutaneous fat by liposuction according to a known method (Kim et al. J Dermatol Sci 53:96-102, 2009). ASCs were cultured in an α-MEM medium (Hyclone, Thermo Scientific) with 10% FBS (GIBCO, Invitrogen) and 1% penicillin/streptomycin (GIBCO) at 37° C. in 5% CO2, and cells at 7-9 passages were used. Positive expression of CD44, CD73, CD90, CD105, HLA-1 and PODXL and negative expression of CD34 and CD45 were examined by flow cytometry (Kim et al. Cell Death Dis 4:e588, 2013; Kim et al., Cell Biol Int 38:32-40, 2014), and multipotent differentiation potential for the cells to differentiate into adipocytes, osteocytes and cartilage cells was examined (Song et al. Stem Cells Dev 17:451-461, 2008).
For cell proliferation assay, 7×10^3 of ASCs were seeded on 48-well plates, 24 hours later, a medium was transferred with a 0.2% FBS-containing α-MEM medium, and the following day, cells were treated with PDGF isoforms (10 ng/ml) for 48 hours. Afterward, the medium was removed, the cells were treated with a 10% CCK-8 solution for 2 hours using a CCK-8 assay kit (Dojindo, Japan), and the absorbance was measured at 450 nm, to examine cell numbers.

ASCs [2] = assay: cell migration assay (trans-well); format: cell-based, human; conditions: for migration of ASCs increased by PDGF-D, effect of inhibitor: inhibitor treatment of PDGF-D-treated ASCs
Experimental: as §1
Also, for cell migration assay, 2×10^4/well of ASCs were seeded on the upper portion of a trans-well membrane plate (Corning, USA). After 2 hours, PDGF isoforms (10 ng/ml) and an α-MEM medium with 0.2% FBS were introduced to the lower portion of the trans-well membrane plate to culture the PDGF isoforms for 16 to 20 hours. Afterward, cells migrated to the trans-well membrane were fixed with cold ethanol for 20 minutes, and stained with 10% crystal-violet (Sigma, USA) at room temperature for 30 minutes.

ROS generation in ASCs = assay: intracellular ROS generation using DCF-DA; format: cell-based, human; conditions: PDGF-D-treated ASCs plus inhibitor
Experimental: ROS generation in cells were measured by a method using DCF-DA (Molecular probe, USA) (Kim et al., Stem Cells Dev 21:2212-2221, 2012; Kim et al., Stem Cells Dev 20:1753-1761, 2011), and mitochondrial ROS generation was measured using Mito-Sox (Molecular probe, USA). ASCs were seeded on 60-mm dishes, treated with PDGF-D (10 ng/ml) and 5 μM Mito-Sox and incubated in a dark place for 2 hours, and then flow cytometry was performed.

BCL2A1 = BCL2A1 mRNA expression (PCR array, qPCR); format: cell-based, human; conditions: PDGF-D-treated ASCs plus inhibitor
Experimental: (§2) In this example, PDGF-D target genes were examined using a human signaling pathwayfinder RT^2 profiler PCR array (signaling pathway: PAHS-041ZD).
(§3) 2.5×10^5 of ASCs were seeded on 60-mm dishes, cultured in a 0.2% FBS-containing α-MEM medium, and treated with PDGF-D for 4-24 hours. Afterward, total RNA was extracted using an RNA extraction kit (RNeasy, Qiagen), cDNA was synthesized from 500 ng of total RNA by a cDNA synthesis kit (A3500, Promega) using 1,000 U reverse transcriptase and 50 ng/μl oligo(dT) primers. Gene expression was detected by a PCR array kit (Qiagen) according to the manufacturer's instructions, and qPCR was performed on a step one plus real-time PCR system (Applied Biosystems, Invitrogen) using a SYBR Green PCR master mix (Takara Bio, Japan).

SERPINE1 = SERPINE1 mRNA expression (PCR array, qPCR); format: cell-based, human; conditions: PDGF-D-treated ASCs plus inhibitor
Experimental: as §2, §3

[3] = test system: growth factors VEGFA, FGF1, FGF5, BMP8B, LIF, INHBA, IL11 and HBEGF; assay: growth factor expression (RT2 profiler PCR array of human growth factor, qPCR); format: cell-based
Experimental: Then, the paracrine effect of PDGF families was examined using an RT^2 profiler PCR array of a human growth factor (growth factor pathway: PAHS-041ZA).
The growth factor expression was measured by an RT^2 profiler PCR array (FIG. 9A).

COc1cc(-n2c(=S)[nH]c3ccccc3c2=O)c(Cl)cc1Cl [Mdivi-1]
mitochondrial fission induced by PDGF-D treatment, effect of inhibitor (mitochondria of ASCs): decreased
proliferation of ASCs increased by PDGF-D, effect of inhibitor (ASCs [1]): considerably decreased
migration of ASCs increased by PDGF-D, effect of inhibitor (ASCs [2]): considerably decreased

CC1(C)CC(C(=O)OCCCCCCCCCC[P+](c2ccccc2)(c2ccccc2)c2ccccc2)C(C)(C)N1O (stereo not drawn) [Mito-CP]
DCF-DA fluorescence, effect of inhibitor/scavenger (ROS generation in ASCs): considerably decreased
BCL2A1 expression, effect of inhibitor (BCL2A1): no influence
proliferation of ASCs increased by PDGF-D, effect of inhibitor (ASCs [1]): considerably decreased
SERPINE1 expression, effect of inhibitor (SERPINE1): considerably decreased
migration of ASCs increased by PDGF-D, effect of inhibitor (ASCs [2]): considerably decreased

S=C(S)N1CCCC1 [PDTC]
BCL2A1 expression, effect of inhibitor (BCL2A1): decreased

N#CC(=C(/N)Sc1ccccc1N)/C(C#N)=C(\N)Sc1ccccc1N [U0126]
proliferation of ASCs increased by PDGF-D, effect of inhibitor (ASCs [1]): not influenced
migration of ASCs increased by PDGF-D, effect of inhibitor (ASCs [2]): not influenced
expression of a growth factor induced by PDGF-D, effect of inhibitor (PCR array) ([3]; 10 μM inhibitor, RT2 profiler PCR array): inhibited
expression of the growth factor induced by PDGF-D, effect of inhibitor (qPCR) ([3]; qPCR): inhibited

COCCOc1ccc2c(c1)ncn2-c1ccc2cccc(N3CCC(N)CC3)c2n1 [cp673451]
DCF-DA fluorescence, effect of inhibitor/scavenger (ROS generation in ASCs): considerably decreased
BCL2A1 expression, effect of inhibitor (BCL2A1): decreased
SERPINE1 expression, effect of inhibitor (SERPINE1): decreased

B1: PDGF-B: PDGF isoform growth factor protein, purchased from Sigma (protein, UniProt P01127 82-190, looked up)
Platelet-derived growth …: SLGSLTIAEPAMIAECKTRTEVFEISRRLIDRTNANFLVWPPCVEVQRCSGCCNNRNVQCRPTQVQLRPVQVRKIEIVRKKPIFKKATVTLEDHLACKCETVAAARPVT
cell proliferation (cell numbers) (ASCs [1]; PDGF isoforms 10 ng/ml, 48 hours, 0.2% FBS α-MEM): considerably enhanced twice or more
cell migration (ASCs [2]; PDGF isoforms 10 ng/ml, 16 to 20 hours, 0.2% FBS α-MEM): considerably enhanced twice or more
